Data as given in ChEMBL document CHEMBL2016508, “Synthesis and biological activity of bi/tricyclic azasugars fused thiazolidin-4-one and thiazinan-4-one by microwave-assisted tandem Staudinger/aza-Wittig/cyclization” (2012).
Activity calls are given as the source filed them. No cut-off for these calls is given here.

How the values were obtained:
[1] = test system: Bacillaceae; test: Inhibition of Bacillaceae alpha-amylase using starch as substrate at 100 uM preincubated for 10 mins prior substrate addition measured after 10 mins by UV-Vis spectrophotometry
[2] = test system: T-cell; test: Effect on proliferation of Balb/C mouse T cells at 5 uM after 72 hrs by MTT assay; type: functional, cell-based
[3] = test system: YAC-1; test: Immunopotentiating activity in Balb/C mouse NK cells assessed as induction of killing activity against YAC-1 cells at 50 uM after 4 hrs by MTT assay; type: functional
[4] = test system: YAC-1; test: Immunopotentiating activity in Balb/C mouse NK cells assessed as induction of killing activity against YAC-1 cells at 5 uM after 4 hrs by MTT assay; type: functional
[5] = test system: Prunus dulcis; test: Inhibition of almonds beta-glucosidase using D-(-)salicin as substrate at 100 uM preincubated for 10 mins prior substrate addition measured after 10 mins by UV-Vis spectrophotometry
[6] = test system: T-cell; test: Effect on proliferation of Balb/C mouse T cells at 50 uM after 72 hrs by MTT assay; type: functional, cell-based
[7] = test system: Saccharomyces cerevisiae; test: Inhibition of yeast alpha-glucosidase using PNPG as substrate at 100 uM preincubated for 10 mins prior substrate addition measured after 10 mins by UV-Vis spectrophotometry

| Structure (SMILES) | inhibition [1] | Activity [2] | Activity [3] | Activity [4] | inhibition [5] | Activity [6] | inhibition [7] |
| --- | --- | --- | --- | --- | --- | --- | --- |
| O=C1c2cccnc2S[C@@H]2[C@@H](O)[C@@H](O)[C@H](O)CN12 | inactive | inactive | 81% | 55% | 19% | inactive | inactive |
| O=C1CCS[C@@H]2[C@H](O)[C@H](O)[C@H](O)CN12 | inactive | inactive | inactive | inactive | inactive | inactive | inactive |
| O=C1CCS[C@@H]2[C@@H](O)[C@@H](O)[C@H](O)CN12 | inactive | inactive | inactive | inactive | inactive | inactive | inactive |
| O=C1c2ccccc2S[C@H]2[C@H](O)[C@H](O)[C@H](O)CN12 | inactive | inactive | inactive | inactive | inactive | inactive | inactive |
| O=C1c2ccccc2S[C@@H]2[C@H](O)[C@H](O)[C@H](O)CN12 | inactive | inactive | inactive | inactive | inactive | inactive | inactive |
| O=C1CS[C@@H]2[C@@H](O)[C@@H](O)[C@H](O)CN12 | inactive | inactive | inactive | inactive | inactive | inactive | inactive |
| O=C1CS[C@@H]2[C@H](O)[C@H](O)[C@H](O)CN12 | inactive | inactive | 87% | 70% | inactive | inactive | inactive |
| O=C1CS[C@H]2[C@H](O)[C@H](O)[C@H](O)CN12 | inactive | inactive | inactive | inactive | 23% | inactive | inactive |
| O=C1c2cccnc2S[C@H]2[C@@H](O)[C@@H](O)[C@H](O)CN12 | inactive | inactive | 97% | 67% | 35% | inactive | inactive |
| O=C1c2cccnc2S[C@@H]2[C@H](O)[C@H](O)[C@H](O)CN12 | inactive | inactive | 71% | 45% | inactive | inactive | inactive |
| O=C1c2ccccc2S[C@@H]2[C@@H](O)[C@@H](O)[C@H](O)CN12 | inactive | inactive | inactive | inactive | inactive | inactive | inactive |
| O=C1CCS[C@H]2[C@@H](O)[C@@H](O)[C@H](O)CN12 | inactive | inactive | 45% | 69% | inactive | inactive | inactive |
| O=C1CCS[C@H]2[C@H](O)[C@H](O)[C@H](O)CN12 | inactive | inactive | inactive | inactive | 18% | inactive | inactive |
| O=C1c2cccnc2S[C@H]2[C@H](O)[C@H](O)[C@H](O)CN12 | inactive | inactive | inactive | inactive | inactive | inactive | inactive |
| O=C1c2ccccc2S[C@H]2[C@@H](O)[C@@H](O)[C@H](O)CN12 | inactive | inactive | 73% | 46% | inactive | inactive | inactive |
| O=C1CS[C@H]2[C@@H](O)[C@@H](O)[C@H](O)CN12 | inactive | inactive | 93% | 72% | 19% | inactive | inactive |
